Consider six molecules from PMC11067372, “Evaluation of the antiplasmodial efficacy of synthetic 2,5-diphenyloxazole analogs of compounds naturally derived from Oxytropis lanata” (International Journal for Parasitology: Drugs and Drug …, 2024).

The test system of one data set is P. falciparum K1. Kind of data set: In vitro inhibition of P. falciparum K1 (SYBR Green I-based fluorescence assay). The format is cell-based. The note with it: Plasmodium falciparum, read-out: IC50 P. falciparum K1. As to the method: (§1) The cultures were maintained in an incubator under specific conditions: 37 °C under 5% CO2 and 5% O2.
(§2) The D-sorbitol method (CAS: 50-70-4, Wako, Osaka, Japan) was employed to synchronize parasites, resulting in the attainment of ≥90% ring-stage parasites. These synchronized parasites were then utilized for the experiments within a 2-h window. The assay was performed as follows. First, 50 μL of synchronized parasites with 0.5% parasitemia and 2% hematocrit were added to individual wells of a 96-well plate. Then, 50 μL of the test compounds was introduced to each well. […] Wells containing only test compounds and erythrocytes were included for background correction. […] After the designated incubation time, 100 μL of lysis buffer containing 0.02% (v/v) SYBR Green I was added to each well, the contents of the well were mixed by pipetting, and the plate was incubated in the dark at room temperature for 2 h. […] This assay was repeated four times at each concentration, and the resulting inhibitory values represent the average from three independent trials.
(§3) The IC50 or CC50 values were determined from three independent experiments by plotting the logarithmic concentration of the compound against the percent parasite inhibition or cell growth inhibition, respectively. Nonlinear regression analysis was conducted using GraphPad Prism 10 (GraphPad Software, Inc., La Jolla, CA, USA). Comparisons between groups were evaluated using either one-way or two-way ANOVA followed by Tukey's or Fisher's multiple comparisons tests. […] The meaning of each symbol is specified in the corresponding figure legend alongside the name of the employed test.

The nature of data set [1]: In vitro toxicity to human cells (cell viability assay). The class given is cell-based. The note with it: human foreskin fibroblasts (HFFs), average ± SD, three independent experiments. As to the method:
HFF cells are selected for cytotoxicity testing in this study, providing a physiologically relevant model for the evaluation of drug interactions with human cells. […] This designation makes them a suitable model for the investigation of cellular processes and their sensitivity to toxic substances, which is crucial for the early identification of potential adverse effects of drugs during the development process.
The IC50 or CC50 values were determined from three independent experiments by plotting the logarithmic concentration of the compound against the percent parasite inhibition or cell growth inhibition, respectively. Nonlinear regression analysis was conducted using GraphPad Prism 10 (GraphPad Software, Inc., La Jolla, CA, USA). Comparisons between groups were evaluated using either one-way or two-way ANOVA followed by Tukey's or Fisher's multiple comparisons tests. A p-value of <0.05 was considered to indicate statistical significance and is denoted by an asterisk or a symbol. The meaning of each symbol is specified in the corresponding figure legend alongside the name of the employed test.

Data set [2] deals with P. falciparum 3D7. In words: IC50 speed assay (24, 48, 72 h). The format is cell-based, Plasmodium falciparum. The note with it: for Speed of action (IC50 speed assay): IC50 at 24, 48, 72 h compared; for IC50: Plasmodium falciparum. As to the method:
as §2

For data set [3], the system named is P. falciparum 3D7. In words: Stage-specific assay on ring and schizont stages (SYBR Green I, 24 h). The class given is cell-based, Plasmodium falciparum. Conditions: eight concentrations from 100-fold IC50. As for the experimental part: (§4) To ensure uniformity, the parasites underwent a rigorous synchronization process using a two-step sorbitol treatment procedure. This synchronized parasite population was harnessed within a 2-h window for the ring stage, 8–10 h for the trophozoite stage, and 24–26 h for the schizont stage. Subsequent to sorbitol treatment, early trophozoites could be obtained within 6–8 h after the initial sorbitol treatment (within 20 h of development), while early schizonts could be obtained after an additional 16 h of incubation (within 36 h of development). Beyond 36 h, the schizonts mature, causing the rupture of red blood cells (RBCs) and the consequent release of merozoites, which promptly infect new RBCs.
Wells containing only the test compounds and erythrocytes were included to correct for background activity. The 96-well plates were incubated for 24 h at 37 °C in an atmosphere of 5% CO2 and 5% O2. The growth of P. falciparum 3D7 was detected using a SYBR Green I-based fluorescence assay.

Data set [4] relates to P. falciparum 3D7. In words: Stage-specific microscopy examination (ring, trophozoite, schizont). The class given is cell-based, Plasmodium falciparum. Conditions: ring, trophozoite, schizont stages, artemisinin and chloroquine at all concentrations, Compounds 31 and 32 at 100 times IC50. As to the method:
as §4
The negative control group consisted of cultures treated solely with complete medium and was designated the no treatment (NT) group. This analysis was repeated three times at each concentration. Following a 24-h incubation period, the culture in a 96-well plate was centrifuged at 1300 g for 5 min to settle down the iRBC; then, the supernatants were removed, and the iRBCs were washed with fresh media at the same volume as the initial culture. The centrifugation and washing were repeated 3 times, allowing the compound to be diluted by approximately 1000 times. Subsequently, thin blood smears from each treatment group were prepared using 1 μL of settled iRBCs. The proportion of parasites affected by the drug, including those with both abnormal and retained morphologies, was calculated by examining 100 parasites and counting the number displaying irregular development. Subsequently, the number of abnormal parasites was divided by the total count and then multiplied by 100 to obtain a percentage. The parameters used to define normal and abnormal morphologies can be found in Table S3 and Fig. S1.

Data set [5] concerns P. falciparum 3D7. Kind of data set: In vitro inhibition of P. falciparum 3D7 (SYBR Green I-based fluorescence assay). The class given is cell-based, Plasmodium falciparum. On the set-up: logIC50: unit not given here. The note with it: for IC50: Plasmodium falciparum; for logIC50: base-10 log-transformed IC50 against P. falciparum 3D7. As to the method:
as §1, §2, §3

A further data set has as its system P. yoelii 17XNL. The class given is in vivo. The note with it: P. yoelii 17XNL-infected mice; 20 mg/kg/day. As for the experimental part:
Male C57BL/6 mice, aged eight weeks, were obtained from Japan CLEA (Tokyo, Japan) and housed with six per cage in each group. These mice were kept under conditions of 24 °C, 50% relative humidity, and a light-dark cycle of 8 a.m. to 8 p.m. Access to drinking water and food (CLEA Rodent Diet CE-2; Japan CLEA, Tokyo, Japan) was unrestricted. Prior to experimentation, P. yoelii 17XNL was recovered from cryopreserved erythrocyte stocks via passage in mice. […]. Parasitemia levels were evaluated […] by collecting 2 μL of blood from the mouse tail for thin blood smear preparation. Treatment was initiated upon reaching a parasitemia level of 1%. […]. Parasitemia in infected mice was observed daily by preparing Giemsa-stained thin blood smears (up to 30 dpi). Hematocrit levels were measured every other day using a Celltac-α MEK-6550 (Nihon Kohden, Tokyo, Japan), with 10 μL of blood collected from the mouse tail for each assessment. The animals were handled and treated in accordance with the Guide for the Care and Use of Laboratory Animals by the Ministry of Education, Culture, Sports, Science, and Technology, Japan. Ethical permission for the animal experiment protocols was secured under permit numbers 21–35 and 23–90 from the ethical committee of Obihiro University of Agriculture and Veterinary Medicine.
The median point within this range was selected to maintain a balance between efficacy and safety. Furthermore, a modified Peter's suppression test was utilized to assess the efficacy of antimalarial drugs ([Ager, 1984]; [Peters et al., 1975]). The treatment and observation period were initially set for 4 days. […] […]. […] These findings highlight the effect of the 20 mg/kg/day dosage of Compounds 31 and 32 in reducing parasitemia without causing side effects.

[6] abbreviates: multidrug-resistant strain K1, 72 h incubation, average ± SD, three independent experiments.
Where [7] appears, read: Table S2, P. falciparum 3D7, value used for SAR analysis, read-out: IC50.
[8] abbreviates: chloroquine-sensitive strain 3D7, 72 h incubation, average ± SD, three independent experiments, read-out: IC50 P. falciparum 3D7.

Like-named read-outs stand apart in the source and are kept apart here.

In general, IC50 refers to the point on the concentration scale where inhibition reaches its midpoint. A word on the CC50: it is the concentration giving 50% cytotoxicity.

For the molecule `C[C@@H]1CC[C@H]2[C@@H](C)C(=O)O[C@@H]3O[C@@]4(C)CC[C@@H]1[C@]32OO4` [Artemisinin, artemisinin, reference compound], the IC50 in the data set with P. falciparum K1 (setting [6]) worked out at 0.019 ± 0.002 µM; in the data set with P. falciparum 3D7 [2] (P. falciparum 3D7, 24 h incubation, read-out: IC50 24 h) it was 0.037 ± 0.005 µM; with P. falciparum 3D7 [2] (P. falciparum 3D7, 48 h incubation, read-out: IC50 48 h), 0.023 ± 0.002 µM. The same molecule yielded a CC50 in data set [1] of 153 ± 30.8 µM. Besides, the “Speed of action (IC50 speed assay)” value in the data set on P. falciparum 3D7 [2] (P. falciparum 3D7) is listed as “fast-acting”. Moreover, the “Stage specificity (ring and schizont stages)” value in the data set with P. falciparum 3D7 [3] is “potency against ring and schizont stages”. Further, the “Parasite morphology after 24 h treatment” value in the data set with P. falciparum 3D7 [4] was “death and shrinkage of the parasite at all stages”.

Consider `CCN(CC)CCCC(C)Nc1ccnc2cc(Cl)ccc12` (stereo not drawn) [Chloroquine (diphosphate), chloroquine diphosphate, reference compound], for which the 50% inhibitory concentration (IC50) was 0.026 ± 0.003 µM with P. falciparum 3D7 [5] (3D7, 72 h, read-out: IC50 P. falciparum 3D7); 0.784 ± 0.073 µM in the data set on P. falciparum K1 (K1, 72 h); 0.046 ± 0.003 µM with P. falciparum 3D7 [2] (3D7, 24 h, read-out: IC50 24 h); 0.022 ± 0.004 µM with P. falciparum 3D7 [2] (3D7, 48 h, read-out: IC50 48 h); 0.026 ± 0.004 µM with P. falciparum 3D7 [2] (3D7, 72 h, read-out: IC50 72 h). For the same molecule, the “Speed of action (IC50 speed assay)” value in the data set with P. falciparum 3D7 [2] (P. falciparum 3D7) is recorded as “fast-acting”. The “Stage specificity (ring and schizont stages)” value in the data set with P. falciparum 3D7 [3] is “potency against ring and schizont stages”. Moreover, in the data set on P. falciparum 3D7 [4], the “Parasite morphology after 24 h treatment” value is “death and shrinkage of the parasite at all stages”. Besides, the “Treatment duration required to decrease the parasitemia levels from the peak of infection” value in the data set on P. yoelii 17XNL was found to be 7 days.

Consider `Oc1ccccc1-c1cnc(-c2cccc(O)c2O)s1` [Compound 40], for which the IC50 in the data set with P. falciparum 3D7 [5] (setting [7]) is 3.95 µM; in the data set with P. falciparum 3D7 [5] (setting [8]), 3.95 ± 1.38 µM; with P. falciparum K1 (setting [6]), 1.74 ± 0.89 µM. Besides, the logIC50 in the data set with P. falciparum 3D7 [5] (Table S2) worked out at 0.597. This molecule showed a CC50 in data set [1] of 46.3 ± 5.84 µM.

Turning to `Oc1ccccc1-c1nnc(-c2cccc(O)c2O)o1` [Compound 42], the IC50 worked out at 9.53 µM in the data set on P. falciparum 3D7 [5] (setting [7]), 9.53 ± 3.15 µM in the data set with P. falciparum 3D7 [5] (setting [8]) and 6.19 ± 2.66 µM in the data set with P. falciparum K1 (setting [6]). The logIC50 with P. falciparum 3D7 [5] (Table S2) was 0.9793. Moreover, the CC50 in data set [1] was found to be 52.5 ± 13.2 µM.

Consider `Oc1ccccc1-c1nnc(-c2cccc(O)c2O)s1` [Compound 44], for which the IC50 in the data set with P. falciparum 3D7 [5] (setting [7]) worked out at 6.41 µM; in the data set on P. falciparum 3D7 [5] (setting [8]) it was 6.41 ± 1.16 µM; with P. falciparum K1 (setting [6]), 3.91 ± 1.45 µM. The molecule also returned a logIC50 in the data set on P. falciparum 3D7 [5] (Table S2) of 0.8066. This molecule also registered a half-maximal cytotoxic concentration (CC50) in data set [1] of 160 ± 62.3 µM.

For `Oc1ccccc1-c1coc(-c2cccc(O)c2O)n1` [Compound 47], the IC50 is 4.63 µM in the data set on P. falciparum 3D7 [5] (setting [7]), 4.63 ± 1.18 µM in the data set on P. falciparum 3D7 [5] (setting [8]) and 3.13 ± 1.21 µM with P. falciparum K1 (setting [6]). For the same molecule, in the data set on P. falciparum 3D7 [5] (Table S2), the logIC50 is on record as 0.6658. Besides, the CC50 in data set [1] worked out at 71 ± 23.1 µM.
